In PMC11261597, “Three-Step Enzymatic Remodeling of Chitin into Bioactive Chitooligomers” (Journal of Agricultural and Food Chemistry, 2024):

Biological target: T1, BsPdaC (Bacillus subtilis, UniProt O34798)
T1 construct: gene pdaC
T1 sequence (O34798 278-467 limits assumed): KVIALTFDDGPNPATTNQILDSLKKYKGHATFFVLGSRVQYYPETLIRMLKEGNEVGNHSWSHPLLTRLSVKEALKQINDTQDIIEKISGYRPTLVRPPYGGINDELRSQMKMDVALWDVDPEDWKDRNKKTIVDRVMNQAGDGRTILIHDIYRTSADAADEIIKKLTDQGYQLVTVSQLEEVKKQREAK
Assay: deacetylation followed by HPLC-MS
Type: biochemical
Conditions: 2 mM substrate, 4 μM enzyme, PBS pH 7.5, 37 °C

| SMILES | deacetylation followed by HPLC-MS |
| --- | --- |
| CC(=O)N[C@H]1[C@H](O[C@H]2[C@H](O)[C@@H](NC(C)=O)C(O)O[C@@H]2CO)O[C@H](CO)[C@@H](O[C@@H]2O[C@H](CO)[C@@H](O[C@@H]3O[C@H](CO)[C@@H](O)[C@H](O)[C@H]3NC(C)=O)[C@H](O)[C@H]2NC(C)=O)[C@@H]1O (some centres unmarked) [CH4, N,N′,N″,N‴-tetraacetylchitotetraose] | BsPdaC exhibited an effective deacetylation of standard CH4 and CH5 substrates |
| CC(=O)N[C@H]1[C@H](O[C@H]2[C@H](O)[C@@H](NC(C)=O)[C@H](O[C@H]3[C@H](O)[C@@H](NC(C)=O)C(O)O[C@@H]3CO)O[C@@H]2CO)O[C@H](CO)[C@@H](O[C@@H]2O[C@H](CO)[C@@H](O[C@@H]3O[C@H](CO)[C@@H](O)[C@H](O)[C@H]3NC(C)=O)[C@H](O)[C@H]2NC(C)=O)[C@@H]1O (some centres unmarked) [CH5] | BsPdaC exhibited an effective deacetylation of standard CH4 and CH5 substrates |
